# Results as given in article PMC3199943, “Screening the MayBridge Rule of 3 Fragment Library for Compounds That Interact with the Trypanosoma brucei myo-Inositol-3-Phosphate Synthase and/or Show Trypanocidal Activity” (Molecular Biology International, 2011).
# Tested on: HeLa cells
# Test: cells
# Details: Homo sapiens, HeLa, 65 h, read-out: HeLa Cells Alamar Blue
# Outline: (§1)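 Viability by Alamar Blue (5 h) after ~65 h drug treatment; seeding density 2 × 10^4 cells/well in DMEM supplemented with 10% FCS and 2 mM L-Glutamine.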
row,SMILES,viability at 500 µM [%]
1,"OCc1ccc(-c2ccco2)s1 [compound 458, [5‐(2‐furyl)thien‐2‐yl]methanol]",94 ± 12.5
2,"CC(=O)CSc1ccc(C)cc1 [compound 460, 1‐[(4‐methylphenyl)thio]acetone]",97 ± 2.5
3,"N#Cc1cc(N)ccc1-n1cccc1 [compound 471, 5‐amino‐2‐(1H‐pyrrol‐1‐yl)benzonitrile]",89.3 ± 18.8
4,"N#Cc1cc(-c2ccccc2)oc1N [compound 477, 2‐amino‐5‐phenyl‐3‐furonitrile]",98.3 ± 18.6
5,"O=C(O)CCC(=O)c1cccs1 [compound 478, 4-oxo-4-(2-thienyl)butanoic acid]",106 ± 9.3
6,"O=C(O)c1cc2sccc2s1 [compound 479, thieno[3,2‐b]thiophene‐2‐carboxylic acid]",109 ± 11.4
7,"COc1cccc(OC)c1SC [compound 481, 1,3‐dimethoxy‐2‐(methylthio)benzene]",104 ± 17.6
8,"COC(=O)c1ccc(C)c(Cl)c1 [compound 484, methyl 3‐chloro‐4‐methylbenzoate]",112 ± 12
9,"Cc1csc2ncnc(Cl)c12 [compound 486, 4‐chloro‐5‐methylthieno[2,3‐d]pyrimidine]",101 ± 12.2
10,"CC1(C)C=Cc2cc(C#N)ccc2O1 [compound 487, 2,2‐dimethyl‐2H‐chromene‐6‐carbonitrile]",112 ± 14.6
11,"Cc1nccc(-c2cccc(N)c2)n1 [compound 493, 3‐(2‐methylpyrimidin‐4‐yl)aniline]",65.9 ± 17
12,"CCOC(=O)Cc1csc(C)n1 [compound 494, ethyl 2‐(2‐methyl‐1,3‐thiazol‐4‐yl)acetate]",103 ± 17.9
13,"Nc1cccc(Oc2ccccn2)c1 [compound 506, 3‐(pyridin‐2‐yloxy)aniline]",99.2 ± 16.2
14,"COc1ccc(Cl)cc1C(=O)O [compound 508, 5‐chloro‐2‐methoxybenzoic acid]",78.4 ± 17.3
15,"N#Cc1ccccc1OC(F)(F)F [compound 509, 2‐(trifluoromethoxy)benzonitrile]",106 ± 16.9
16,"Cc1ccc2cc(C(=O)O)ccc2n1 [compound 510, 2‐methyl‐6‐quinolinecarboxylic acid]",117 ± 10.8
17,"O=C(O)c1cccc(-n2cccc2)c1 [compound 511, 3‐(1H‐pyrrol‐1‐yl)benzoic acid]",102 ± 12.3
18,"O=C(O)c1ccccc1-n1cccc1 [compound 513, 2-(1H-pyrrol-1-yl)benzoic acid]",98.5 ± 6.5
19,"N#Cc1ncccc1N1CCCCC1 [compound 517, 3‐piperidin‐1‐ylpyridine‐2‐carbonitrile]",51.2 ± 17.9

# Same assay, conditions: Homo sapiens, HeLa, 65 h, read-out: HeLa Cells Alamar Blue (% survival)
row,SMILES,viability at 500 µM [%]
1,"O=C(O)CCC(=O)c1cccs1 [compound 478, 4-oxo-4-(2-thienyl)butanoic acid]",106 ± 9.3
2,"O=C(O)c1ccccc1-n1cccc1 [compound 513, 2-(1H-pyrrol-1-yl)benzoic acid]",98.5 ± 6.5

# Target: T1, TbINO1 (Trypanosoma brucei brucei, UniProt Q5QQ46)
# T1 sequence (Q5QQ46 1-528): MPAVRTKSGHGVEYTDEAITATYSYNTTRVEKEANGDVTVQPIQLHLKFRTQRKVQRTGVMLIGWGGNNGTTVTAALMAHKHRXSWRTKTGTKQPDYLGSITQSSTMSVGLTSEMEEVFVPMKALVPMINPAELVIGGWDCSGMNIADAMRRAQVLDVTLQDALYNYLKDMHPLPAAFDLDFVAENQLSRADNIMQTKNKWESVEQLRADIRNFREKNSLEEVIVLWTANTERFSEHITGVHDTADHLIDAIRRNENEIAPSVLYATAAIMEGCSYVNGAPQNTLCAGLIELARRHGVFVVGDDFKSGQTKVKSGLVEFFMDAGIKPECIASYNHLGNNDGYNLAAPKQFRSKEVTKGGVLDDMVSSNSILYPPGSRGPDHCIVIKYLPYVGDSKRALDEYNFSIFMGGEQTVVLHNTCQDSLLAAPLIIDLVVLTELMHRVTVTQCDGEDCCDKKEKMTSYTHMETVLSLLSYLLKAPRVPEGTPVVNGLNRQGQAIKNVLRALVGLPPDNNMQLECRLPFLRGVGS
# Test: biochemical
# Assay type: binding
# Details: Supplementary Table 1; compound 1mM; mean ± SD from Boltzman curve fitting; read-out: Tb Ino1 Tm Shift [˚C]
row,SMILES,ΔTm at 1000 µM [°C]
1,"N#Cc1cc(-c2ccccc2)oc1N [compound 477, 2‐amino‐5‐phenyl‐3‐furonitrile]",0.04 ± 0.1

# Same assay, conditions: compound 1 mM; mean ± SD (n = 3); read-out: TbIno1 Tm shift [°C]
row,SMILES,ΔTm at 1000 µM [°C]
1,"O=C(O)c1ccccc1-n1cccc1 [compound 513, 2-(1H-pyrrol-1-yl)benzoic acid]",3.14 ± 0.09

# Same assay, conditions: read-out: Tb Ino1 Tm Shift [˚C]
row,ΔTm at 1000 µM [°C],SMILES
1,0.6 ± 0.02,"OCc1ccc(-c2ccco2)s1 [compound 458, [5‐(2‐furyl)thien‐2‐yl]methanol]"
2,0.46 ± 0.07,"CC(=O)CSc1ccc(C)cc1 [compound 460, 1‐[(4‐methylphenyl)thio]acetone]"
3,0.1 ± 0.08,"N#Cc1cc(N)ccc1-n1cccc1 [compound 471, 5‐amino‐2‐(1H‐pyrrol‐1‐yl)benzonitrile]"
4,0.21 ± 0.07,"O=C(O)c1cc2sccc2s1 [compound 479, thieno[3,2‐b]thiophene‐2‐carboxylic acid]"
5,0.07 ± 0.08,"COc1cccc(OC)c1SC [compound 481, 1,3‐dimethoxy‐2‐(methylthio)benzene]"
6,0.1 ± 0.07,"COC(=O)c1ccc(C)c(Cl)c1 [compound 484, methyl 3‐chloro‐4‐methylbenzoate]"
7,0.24 ± 0.07,"Cc1csc2ncnc(Cl)c12 [compound 486, 4‐chloro‐5‐methylthieno[2,3‐d]pyrimidine]"
8,0,"CC1(C)C=Cc2cc(C#N)ccc2O1 [compound 487, 2,2‐dimethyl‐2H‐chromene‐6‐carbonitrile]"
9,0.15 ± 0.07,"Cc1nccc(-c2cccc(N)c2)n1 [compound 493, 3‐(2‐methylpyrimidin‐4‐yl)aniline]"
10,0.99 ± 0.08,"CCOC(=O)Cc1csc(C)n1 [compound 494, ethyl 2‐(2‐methyl‐1,3‐thiazol‐4‐yl)acetate]"
11,0.23 ± 0.09,"Nc1cccc(Oc2ccccn2)c1 [compound 506, 3‐(pyridin‐2‐yloxy)aniline]"
12,0.07 ± 0.07,"COc1ccc(Cl)cc1C(=O)O [compound 508, 5‐chloro‐2‐methoxybenzoic acid]"
13,0.01 ± 0.08,"N#Cc1ccccc1OC(F)(F)F [compound 509, 2‐(trifluoromethoxy)benzonitrile]"
14,0.12 ± 0.08,"Cc1ccc2cc(C(=O)O)ccc2n1 [compound 510, 2‐methyl‐6‐quinolinecarboxylic acid]"
15,0.6 ± 0.08,"O=C(O)c1cccc(-n2cccc2)c1 [compound 511, 3‐(1H‐pyrrol‐1‐yl)benzoic acid]"
16,0.16 ± 0.07,"N#Cc1ncccc1N1CCCCC1 [compound 517, 3‐piperidin‐1‐ylpyridine‐2‐carbonitrile]"

# Same assay, conditions: read-out: TbIno1 Tm shift [°C]
row,ΔTm at 1000 µM [°C],SMILES
1,2.58 ± 0.05,"O=C(O)CCC(=O)c1cccs1 [compound 478, 4-oxo-4-(2-thienyl)butanoic acid]"

# Tested on: A549 cells
# Test: Cytotoxicity against A549 cells, Alamar Blue
# Assay type: cell-based
# Details: Homo sapiens, A549, 65 h; Supplementary Table 1; compound 0.5 mM; percentage of controls (n=1)
# Outline: as §1
row,SMILES,viability at 500 µM [%]
1,"OCc1ccc(-c2ccco2)s1 [compound 458, [5‐(2‐furyl)thien‐2‐yl]methanol]",73.6
2,"CC(=O)CSc1ccc(C)cc1 [compound 460, 1‐[(4‐methylphenyl)thio]acetone]",96.9
3,"N#Cc1cc(N)ccc1-n1cccc1 [compound 471, 5‐amino‐2‐(1H‐pyrrol‐1‐yl)benzonitrile]",81.4
4,"N#Cc1cc(-c2ccccc2)oc1N [compound 477, 2‐amino‐5‐phenyl‐3‐furonitrile]",97.4
5,"O=C(O)CCC(=O)c1cccs1 [compound 478, 4-oxo-4-(2-thienyl)butanoic acid]",92.3
6,"O=C(O)c1cc2sccc2s1 [compound 479, thieno[3,2‐b]thiophene‐2‐carboxylic acid]",102
7,"COc1cccc(OC)c1SC [compound 481, 1,3‐dimethoxy‐2‐(methylthio)benzene]",103
8,"COC(=O)c1ccc(C)c(Cl)c1 [compound 484, methyl 3‐chloro‐4‐methylbenzoate]",120
9,"Cc1csc2ncnc(Cl)c12 [compound 486, 4‐chloro‐5‐methylthieno[2,3‐d]pyrimidine]",111
10,"CC1(C)C=Cc2cc(C#N)ccc2O1 [compound 487, 2,2‐dimethyl‐2H‐chromene‐6‐carbonitrile]",108
11,"Cc1nccc(-c2cccc(N)c2)n1 [compound 493, 3‐(2‐methylpyrimidin‐4‐yl)aniline]",92.6
12,"CCOC(=O)Cc1csc(C)n1 [compound 494, ethyl 2‐(2‐methyl‐1,3‐thiazol‐4‐yl)acetate]",120
13,"Nc1cccc(Oc2ccccn2)c1 [compound 506, 3‐(pyridin‐2‐yloxy)aniline]",72.5
14,"COc1ccc(Cl)cc1C(=O)O [compound 508, 5‐chloro‐2‐methoxybenzoic acid]",101
15,"N#Cc1ccccc1OC(F)(F)F [compound 509, 2‐(trifluoromethoxy)benzonitrile]",110
16,"Cc1ccc2cc(C(=O)O)ccc2n1 [compound 510, 2‐methyl‐6‐quinolinecarboxylic acid]",126
17,"O=C(O)c1cccc(-n2cccc2)c1 [compound 511, 3‐(1H‐pyrrol‐1‐yl)benzoic acid]",73
18,"O=C(O)c1ccccc1-n1cccc1 [compound 513, 2-(1H-pyrrol-1-yl)benzoic acid]",64.4
19,"N#Cc1ncccc1N1CCCCC1 [compound 517, 3‐piperidin‐1‐ylpyridine‐2‐carbonitrile]",54.7
